Each structure is given as a SMILES string. Some results are limits rather than exact numbers.

In general, melting point refers to the temperature of the solid-liquid transition. `COc1cc2c(cc1OC)Sc1ccc(Cl)cc1C(Cl)C2` (stereo not given) displayed a melting point of 139 to 141 °C.

For the compound `CCCC(=Cc1ccsc1)[N+](=O)[O-]`, the melting point lay in the range of 52 to 54.5 °C.

The compound `CCC1(c2cn(-c3c(Cl)cc(C(F)(F)F)cc3Cl)nc2C#N)CC1` gave a melting point of 118 to 119 °C.

`Cn1cc(-c2cc(-c3cnc4[nH]ccc4c3)ccn2)n(-c2ccccc2)c1=O` returned a melting point of 264 °C.

Take `NC(=O)c1nc(-c2cccc(O)c2)nc2c1[nH]c(=O)n2-c1ccccc1C1CCCCC1`: the melting point was > 270 °C.

In turn, `CC1(C)CCc2c(Cl)cc(O)cc21` gave a melting point of 86.5 to 87.5 °C.

On to `O=C(Cc1ccccc1)c1cc(O)c(O)c([N+](=O)[O-])c1`, for which the melting point fell in the range of 181 to 182 °C.

`CS(=O)c1ccccc1CN1CCC(=O)C(C(c2ccc(F)cc2)c2ccc(F)cc2)C1` (stereo not given) displayed a melting point of 187 to 189 °C.

Compound `Cc1ccc2cccc(OCc3cc(N)ccc3Cl)c2n1` returned a melting point of 176 to 178 °C.

In turn, `O=C(CCCCCCCCCCS(=O)c1ccccc1[N+](=O)[O-])OCc1ccccc1` (stereo not given) came in with a melting point of 37 to 38 °C.

Compound `CN(C)C(=O)C(c1ccccc1)(c1ccccc1)c1ncc[nH]1` showed a melting point of 202 °C.

As to `CCCCNc1nc(N)nc(-c2ccc(Cl)c(Cl)c2)n1`, the melting point lay within 176 to 179 °C.

Turning to `CSCCc1nc(N2CCc3ccccc3CC2)c(C#N)c(=O)n1CCO`, the melting point lay within 93 to 99 °C.

Compound `Cc1ccccc1-c1nc2c(s1)C(S(=O)(=O)Cc1ccccc1)Cc1c(OCC(=O)O)cccc1-2` (stereo not given) showed a melting point of 192 to 193 °C.

Compound `COc1ccncc1C#N` gave a melting point of 124 to 126 °C.

For the compound `CCOC(=O)C1=C(C=O)NC(C=O)=C(C(=O)OCC)C1c1ccccc1Cl`, the melting point lay in the range of 85 to 86 °C.

`O=C1c2ccccc2C(=O)N1c1ncc(C(Cl)Cl)nc1CO` registered a melting point of 188 to 189 °C.

`CCc1nn(Cc2cccnn2)c(C(N)=O)c1NC(=O)c1cc(S(C)(=O)=O)ccc1OCC(C)C` gave a melting point of 196 to 200 °C.

Turning to `COc1ccc(-c2nc(-c3[nH]cc(C)c3C)[nH]c2-c2ccc(OC)cc2)cc1`, the melting point was found to be 134 °C.

`Clc1ccc(Cl)c(Oc2cccc(Cl)n2)c1`: the melting point lay within 82 to 84 °C.

As to `CC(=O)S[C@@H](CC1CCCCC1)C(=O)O`, the melting point lay in the range of 159 to 161 °C.

`COc1cccc(Oc2ccc(CCNc3ncnc4nccnc34)cc2)n1` had a melting point of 152 to 153 °C.

On to `CNC1=NS(=O)(=O)N=C1NCCSCc1ccccn1`, for which the melting point is 168 to 171 °C.

In turn, `Cc1ccc(S(=O)(=O)n2ccc3c(Cl)c(F)cnc32)cc1` gave a melting point of 125 °C.

`CC(Br)c1ccc2occ(C#N)c(=O)c2c1` (stereo not given): the melting point was in the range of 162 to 164 °C.

`O=C1CC(O)CN1S(=O)(=O)c1ccc(N2CCCCCC2)cc1` (stereo not given) registered a melting point of 170 to 172 °C.

For the compound `CCCN(C)c1ccc(-c2c(Cl)c(=O)c2=O)cc1`, the melting point came to 162 °C.

Take `CCOC(=O)c1c(OC)c([N+](=O)[O-])cn1C`: the melting point fell in the range of 145 to 147 °C.

As for `CCNC(=O)Nc1ccc2c(c1Cl)C(c1ccccc1F)=NCC(=O)N2C`, the melting point was in the range of 155 to 160 °C.

On to `COC(=O)Cc1cccc(OC)c1OCCCc1cn(-c2ccc([N+](=O)[O-])cn2)nc1C(C)C`, for which the melting point fell in the range of 108 to 109 °C.

`COc1ccc(CN2C(=O)[C@@H](N3C(=O)c4ccccc4C3=O)[C@H]2c2ccc(Cl)cc2)c(OC)c1` (relative stereo) returned a melting point of 178 to 180 °C.

`COc1cc2c(cc1N)N(C)C(=O)CN(CC#N)C2` yielded a melting point of 128 to 132 °C.

For the compound `N=C(NO)c1ccc(-c2cccc(-c3nc4cc(C(=N)NO)ccc4[nH]3)c2)cc1`, the melting point was 317 to 319 °C.

The compound `CC(C)(C)OC(=O)NCc1cccc(C=CC(=O)O)c1` registered a melting point of 121 to 123 °C.

Take `O=[N+]([O-])c1cccc(OCc2nc3ccccc3s2)c1`: the melting point was in the range of 156 to 157 °C.

Compound `CCC1(CC)OC(c2ccc(S(C)(=O)=O)cc2)=C(c2ccccc2)C1=O` yielded a melting point of 139 to 140 °C.

With `O=C(Nc1ccc(-c2ccccc2)cc1)c1cccc([N+](=O)[O-])c1O`, the melting point was found to be 152 °C.

Compound `COC1=CC(=O)C(OC)=C(CCCC2=C(OC)C(=O)C=C(OC)C2=O)C1=O` displayed a melting point of 157 to 159 °C.

Take `CCOC(Nc1ccccc1)(OCC)c1cc(C(=O)c2ccc(Cl)cc2)nc(C)c1Cl`: the melting point was 156 to 157 °C.

Take `O=C(NCCOc1ccc(-c2noc(=O)[nH]2)cc1)C1Cc2ccccc2N1S(=O)(=O)c1ccc(-c2cccc(C(F)(F)F)c2)cc1` (stereo not given): the melting point lay in the range of 123 to 130 °C.

As for `CC1=C(C)CC(C(=O)O)OC1` (stereo not given), the melting point is 82 to 84 °C.

Take `O=C(O)CCC(=O)c1ccc2oc3ccccc3c2c1`: the melting point is 186 to 188 °C.

The compound `COc1ccc(COCc2nc(C(C)C)c(Sc3cc(Cl)cc(Cl)c3)[nH]2)cc1` showed a melting point of 96 to 97 °C.

Take `CCCCCCCCCCC=Cc1cnn(C(C(=O)Nc2c(OC)cc(OC)cc2OC)c2ccccc2)c1` (stereo not given): the melting point was 82 to 85 °C.

In turn, `O=C1c2ccccc2C(=O)N1CCc1c[nH]c2ccc(Br)cc12` registered a melting point of 206 to 209 °C.

For the compound `OCC1OC(n2c(Br)nc3cc(Cl)c(Cl)cc32)C(O)C1O` (stereo not given), the melting point amounted to 169 °C.

As to `CN1CCN(c2nc3ccc(Br)c4c3n2CCC4)CC1`, the melting point lay in the range of 132 to 133 °C.

`Cc1nc2ccccn2c(=O)c1CCN1CCC(=C(c2ccc(F)cc2)c2ccc(F)cc2)CC1`: the melting point came out at 109 °C.

As to `O=C1Cc2ccc3ccccc3c2OC1C(=O)c1cccc(Cl)c1` (stereo not given), the melting point was in the range of 206 to 208 °C.

Regarding `OP(O)C(NC(c1ccccc1)c1ccccc1)c1ccc2ccccc2c1` (stereo not given), the melting point is 205 to 207 °C.

Consider `N#Cc1c(-c2ccc(Cl)cc2)[nH]c(SC(F)(F)F)c1Br`, for which the melting point lay within 241 to 243 °C.

For the compound `Oc1ccc(Cl)cc1C1(O)CCCCC1`, the melting point turned out to be 110 °C.

As for `CC(C)Oc1c(C(=O)Nc2nnn[nH]2)sc2c1CN(C(=O)OC(C)(C)C)CC2`, the melting point is 189 to 191 °C.

`CCN(CC)C(=O)CCc1nc(-c2ccccc2)nc2ccccc12` showed a melting point of 103 °C.

`Nc1c(C(=O)c2ccoc2)[nH]c2cc(Cl)ccc12`: the melting point lay within 113 to 114 °C.

With `Fc1ccc2c(CCCN3CCN(c4n[nH]c5ccccc45)CC3)noc2c1`, the melting point was 139 to 141 °C.

`NCC1CCCN(c2ncc3ncnc(Nc4ccc(F)c(Cl)c4)c3n2)C1` (stereo not given) gave a melting point of 132 to 137 °C.

`O=C1CNC(=O)N1c1ccncc1`: the melting point is 232 to 234 °C.

As for `CCCCOc1ccc(CC(=O)N[C@@H](C(=O)O)[C@@H](C)O)cc1`, the melting point was in the range of 90 to 94 °C.

As to `O=C(COc1cc(F)ccc1C(=O)NCc1cccc([N+](=O)[O-])c1)OCc1ccccc1`, the melting point lay within 95 to 98 °C.

The compound `CC(C)(C)c1ccc(C(=O)Nc2cn3nc(-n4cnc(Cl)c4Cl)ccc3n2)cc1` displayed a melting point of 281 to 282 °C.

With `CSC(=NS(=O)(=O)c1ccccc1Cl)SC`, the melting point fell in the range of 119 to 123 °C.

In turn, `Cc1[nH]c2ccc(Br)cc2c1Cc1cccnc1` returned a melting point of 188 to 190 °C.

In turn, `Cc1cc(C(=O)Nc2cc(Oc3ccc4nc(NC(=O)C5CC5)cn4n3)ccc2F)n(C)n1` showed a melting point of 237 °C.

`CCOC(=O)CN(C)CC=CC(=O)Nc1ccc2ncnc(Nc3cccc(Br)c3)c2c1` showed a melting point of 182 to 183 °C.

Compound `Nc1nc2c(s1)CCN(CC1CC1c1ccccc1)CC2` (stereo not given) had a melting point of 109 to 113 °C.

In turn, `CC[C@@H](CO)[C@](O)(Cn1cncn1)c1ccc(F)cc1F` showed a melting point of 75 to 77 °C.

In the case of `O=C(c1ccc2c(c1)CCO2)N1Cc2cccnc2Nc2ccccc21`, the melting point came out at 188 °C.

On to `COC[C@H]1CCCN1NC(=O)Nc1cccc2c1C(=O)c1c-2n[nH]c1-c1ccc(C(=O)N2CCN(C)CC2)s1`, for which the melting point is 181 to 183 °C.

Take `CN(C)CC(=O)Nc1cccc2nc(NC3CCc4cc(F)ccc43)ccc12` (racemic): the melting point was 164 °C.

`COc1nc(C)nc(NC(=O)NS(=O)(=O)c2ccccc2OC(F)F)n1`: the melting point fell in the range of 140 to 141 °C.

The compound `NC(=O)CC1CN=C(c2cc3cc(OC(F)(F)F)cc(NS(=O)(=O)c4cccs4)c3[nH]2)S1` (stereo not given) had a melting point of 239 to 240 °C.

On to `COC(C)c1ccc(C(=O)O)cc1` (single isomer, unassigned; (+)), for which the melting point lay in the range of 99 to 102 °C.

As for `COC(=O)c1cc2cc(Br)ccc2nc1Cl`, the melting point lay within 176 to 177 °C.

The compound `CCCCC(=N)NC(=O)Nc1ccccc1O` showed a melting point of 173 to 175 °C.

For `Cn1c(CN)nc(-c2ccncn2)cc1=O`, the melting point fell in the range of 153 to 155 °C.

Consider `COc1cc([N+](=O)[O-])c(N)cc1O`, for which the melting point is 208 °C.

Compound `CC(C)(C)C(=O)C(Br)C(c1ccc(Cl)cc1Cl)S(=O)(=O)c1ccc(Cl)cc1` (stereo not given) registered a melting point of 184 to 185 °C.

`CN1CCC(N(C)c2n[nH]c(-c3ccc(Cl)cc3)c2-c2ccncc2)CC1` displayed a melting point of 260 to 261 °C.

For the compound `CCN1NC=C2C1=NC=CC2(ON=C(C)C)C(O)c1ccccn1` (stereo not given), the melting point fell in the range of 131 to 133 °C.

In turn, `Oc1ccc2c(c1)COc1c-2cc2ccc(O)cc2c1-c1ccccc1Cl` gave a melting point of 220 to 222 °C.

`O=S1(=O)N=CN(C2CCCCC2)c2cc(Cl)c(Cl)cc21` returned a melting point of 219 to 222 °C.

On to `CCOC(=O)C1C(=O)C=C(c2ccccc2)N=C1c1ccccc1` (stereo not given), for which the melting point was in the range of 177 to 179 °C.

Turning to `O=S1(=O)N=C(NCC2CCCCC2)Nc2cc(Cl)ccc21`, the melting point was 317 to 323 °C.

`CC(=N)Nc1cccc(F)c1` gave a melting point of 175 to 177 °C.

In turn, `Cc1ccc(S(=O)(=O)N(Cc2cc(C(C)(C)C)c(O)c(C(C)(C)C)c2)c2cccnc2)cc1` showed a melting point of 121 to 123 °C.

Regarding `COc1cc(C#N)ccc1-c1cc(-c2cc(C#N)ccc2OC)on1`, the melting point fell in the range of 271 to 273 °C.

With `CCn1cc(C(=O)O)c(=O)c2cnc(N3CCN(Cc4ccccc4)CC3)nc21`, the melting point amounted to 207 °C.

`O=C(CC(=S)N1CCC[C@H]1C(=O)O)c1ccccc1` yielded a melting point of 151 to 152 °C.

Take `CCC(=O)NCCOc1ccccc1`: the melting point lay in the range of 61.5 to 64 °C.

These data come from a melting point compilation (Tetko et al.; mined from patent text by program, amines drawn as free bases though some values may be those of a salt).
